Molecules are shown by their SMILES. Active and inactive are the calls of the source. The rule behind the calls is not given here.

Assay [1] deals with Raphanus raphanistrum. The assay can be described thus: Resistance index, ratio of GR50 for ALS-herbicide-resistant Raphanus raphanistrum WARR30 (wild radish) expressing ALS Ala122Tyr mutant to GR50 for ALS-herbicide-susceptible Raphanus raphanistrum (wild radish) WARR7. In kind it is functional.
For assay [2], the system named is Raphanus raphanistrum. The assay can be described thus: Herbicidal activity against two to three-leaf stage ALS-herbicide-susceptible Raphanus raphanistrum WARR7 (wild radish) assessed as reduction in survival at 0.75 g/ha measured 3 weeks after compound treatment. In kind it is functional. Conditions: WARR7, 504 h, read-out: GI.
The target of assay [3] is Acetolactate synthase (Raphanus raphanistrum, UniProt J7HAW4, A122Y). The assay can be described thus: Inhibition of ALS Ala122Tyr mutant in ALS-herbicide-resistant Raphanus raphanistrum WARR30 (wild radish) expressing ALS Ala122Tyr mutant. The following applies: read-out: I50.
The test system of assay [4] is Raphanus raphanistrum. The assay can be described thus: Resistance index, ratio of LD50 for ALS-herbicide-resistant Raphanus raphanistrum WARR30 (wild radish) expressing ALS Ala122Tyr mutant to LD50 for ALS-herbicide-susceptible Raphanus raphanistrum (wild radish) WARR7. It counts as functional.
For assay [5], the target named is T1, Acetolactate synthase (Raphanus raphanistrum, UniProt J7HAW4).
T1 sequence (J7HAW4 whole entry): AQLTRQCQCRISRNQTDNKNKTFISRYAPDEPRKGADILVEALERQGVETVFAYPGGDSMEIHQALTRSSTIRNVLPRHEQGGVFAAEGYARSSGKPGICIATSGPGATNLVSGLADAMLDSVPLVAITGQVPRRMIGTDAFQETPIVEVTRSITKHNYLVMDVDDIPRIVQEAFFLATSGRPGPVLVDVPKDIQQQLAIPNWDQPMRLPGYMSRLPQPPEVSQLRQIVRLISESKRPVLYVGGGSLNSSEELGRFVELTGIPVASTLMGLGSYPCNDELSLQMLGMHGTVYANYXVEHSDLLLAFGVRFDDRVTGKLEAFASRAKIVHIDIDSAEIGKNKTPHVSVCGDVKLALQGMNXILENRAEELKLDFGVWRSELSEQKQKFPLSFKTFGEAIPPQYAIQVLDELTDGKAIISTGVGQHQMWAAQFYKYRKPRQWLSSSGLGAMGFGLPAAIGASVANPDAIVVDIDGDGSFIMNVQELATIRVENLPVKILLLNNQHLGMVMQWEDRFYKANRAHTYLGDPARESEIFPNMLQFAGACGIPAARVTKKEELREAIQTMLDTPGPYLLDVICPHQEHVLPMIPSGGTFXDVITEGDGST
The assay can be described thus: Inhibition of ALS in ALS-herbicide-susceptible Raphanus raphanistrum […] (wild radish). Conditions: pooled result: one value given for 2 cell lines, strains, targets or settings; read-out: I50.

In assay [6] the test system is Raphanus raphanistrum. Briefly: Herbicidal activity against two to three-leaf stage ALS-herbicide-resistant Raphanus raphanistrum WARR30 (wild radish) expressing ALS Ala122Tyr mutant assessed as reduction in survival at 384 g/ha measured 3 weeks after compound treatment. In kind it is functional. Conditions: WARR30, 504 h, read-out: GI.
Assay [7] deals with Raphanus raphanistrum. The assay can be described thus: Herbicidal activity against two to three leaf stage ALS-herbicide-susceptible Raphanus raphanistrum WARR7 (wild radish) assessed as reduction in survival measured 3 weeks after compound treatment. It counts as functional.
For assay [8], the system named is Raphanus raphanistrum. The assay can be described thus: Herbicidal activity against two to three leaf stage ALS-herbicide-susceptible Raphanus raphanistrum WARR7 (wild radish) assessed as reduction in dry weight of above-ground biomass measured 3 weeks after compound treatment. In kind it is functional.
Assay [9] concerns Raphanus raphanistrum. The assay can be described thus: Herbicidal activity against two to three leaf stage ALS-herbicide-resistant Raphanus raphanistrum WARR30 (wild radish) expressing ALS Ala122Tyr mutant assessed as reduction in dry weight of above-ground biomass measured 3 weeks after compound treatment. It counts as functional.
Assay [10] concerns Raphanus raphanistrum. Briefly: Herbicidal activity against two to three leaf stage ALS-herbicide-resistant Raphanus raphanistrum WARR30 (wild radish) expressing ALS Ala122Tyr mutant assessed as reduction in survival measured 3 weeks after compound treatment. In kind it is functional.
Assay [11] has as its system Raphanus raphanistrum. Briefly: Resistance index, ratio of I50 for ALS Ala122Tyr mutant in ALS-herbicide-resistant Raphanus raphanistrum WARR30 (wild radish) expressing ALS Ala122Tyr mutant to I50 for ALS-herbicide-susceptible Raphanus raphanistrum (wild radish).
Assay [12] deals with Raphanus raphanistrum. Briefly: Herbicidal activity against two to three-leaf stage ALS-herbicide-resistant Raphanus raphanistrum WARR30 (wild radish) expressing ALS Ala122Tyr mutant assessed as reduction in survival at 1600 g/ha measured 3 weeks after compound treatment. It counts as functional. Conditions: WARR30, 504 h, read-out: GI.
The subject of assay [13] is Raphanus raphanistrum. Briefly: Herbicidal activity against two to three-leaf stage ALS-herbicide-susceptible Raphanus raphanistrum WARR7 (wild radish) assessed as reduction in survival at 62 g/ha measured 3 weeks after compound treatment. In kind it is functional, organism-based.
Assay [14] deals with Raphanus raphanistrum. Briefly: Herbicidal activity against two to three-leaf stage ALS-herbicide-susceptible Raphanus raphanistrum WARR7 (wild radish) assessed as reduction in survival at 50 g/ha measured 3 weeks after compound treatment. It counts as functional, organism-based.
In assay [15] the test system is Raphanus raphanistrum. Briefly: Herbicidal activity against two to three-leaf stage ALS-herbicide-susceptible Raphanus raphanistrum WARR7 (wild radish) assessed as reduction in survival at 0.625 g/ha measured 3 weeks after compound treatment. The following applies: WARR7, 504 h, read-out: GI. It counts as functional.
The test system of assay [16] is Raphanus raphanistrum. The assay can be described thus: Herbicidal activity against two to three-leaf stage ALS-herbicide-resistant Raphanus raphanistrum WARR30 (wild radish) expressing ALS Ala122Tyr mutant assessed as reduction in survival at 20 g/ha measured 3 weeks after compound treatment. Conditions: WARR30, 504 h, read-out: GI. In kind it is functional.
Assay [17] deals with Raphanus raphanistrum. The assay can be described thus: Herbicidal activity against two to three-leaf stage ALS-herbicide-resistant Raphanus raphanistrum WARR30 (wild radish) expressing ALS Ala122Tyr mutant assessed as reduction in survival at 640 g/ha measured 3 weeks after compound treatment. It counts as functional, organism-based.

For the molecule `COc1cc(OC)n2nc(S(=O)(=O)Nc3c(Cl)ccc(C)c3Cl)nc2n1` [METOSULAM], the Ratio was over 512 in the assay on Raphanus raphanistrum [1], over 512 with Raphanus raphanistrum [4] and over 94500 with Raphanus raphanistrum [11]. Also, the inhibition of growth at 0.75 g/ha with Raphanus raphanistrum [2] turned out to be 95%. Moreover, the IC50 on Acetolactate synthase [3] is 94 µM; at Acetolactate synthase [5], under 0.001 µM. The inhibition of growth at 384 g/ha with Raphanus raphanistrum [6] was 10%. The LD50 is recorded as under 0.75 g/ha in the assay with Raphanus raphanistrum [7] and over 384 g/ha with Raphanus raphanistrum [10]. Besides, the figures for the GR50 with Raphanus raphanistrum [8] and in the assay on Raphanus raphanistrum [9] were under 0.75 g/ha and over 384 g/ha, respectively.
As to `COCc1cnc(C2=NC(C)(C(C)C)C(=O)N2)c(C(=O)O)c1` (centres undefined) [IMAZAMOX], the Ratio was over 256 in the assay with Raphanus raphanistrum [1], over 137 in the assay on Raphanus raphanistrum [4] and over 21 with Raphanus raphanistrum [11]. Also, the inhibition of growth at 1600 g/ha in the assay with Raphanus raphanistrum [12] amounted to 20%. Moreover, the IC50 at Acetolactate synthase [3] was over 100 µM; at Acetolactate synthase [5] it was 4.78 µM. Moreover, the LD50 is given as 11.7 g/ha with Raphanus raphanistrum [7] and over 1600 g/ha in the assay on Raphanus raphanistrum [10]. The GR50 in the assay with Raphanus raphanistrum [8] is under 6.3 g/ha; with Raphanus raphanistrum [9] it was over 1600 g/ha. In addition, in the assay on Raphanus raphanistrum [13], the result was Active.
Consider `CCc1cnc(C2=NC(C)(C(C)C)C(=O)N2)c(C(=O)O)c1` (centres undefined) [IMAZETHAPYR], for which the IC50 on Acetolactate synthase [3] was over 1000 µM; at Acetolactate synthase [5], 1.35 µM. Also, the outcome in the assay on Raphanus raphanistrum [7] and in the assay on Raphanus raphanistrum [8] was Active. Moreover, the outcome in the assay on Raphanus raphanistrum [9] and in the assay with Raphanus raphanistrum [10] was inactive. In the assay on Raphanus raphanistrum [11], the Ratio was over 741.
On to `Cc1cc(C)nc(NC(=O)NS(=O)(=O)c2ccccc2C(=O)O)n1` [SULFOMETURON], for which the IC50 on Acetolactate synthase [3] is over 100 µM. Moreover, the outcome with Raphanus raphanistrum [7] and with Raphanus raphanistrum [8] was Active. For the same molecule, the result in the assay with Raphanus raphanistrum [9] and in the assay with Raphanus raphanistrum [10] was inactive. For the same molecule, the Ratio in the assay on Raphanus raphanistrum [11] is over 4350.
Take `CC(C)C1(C)N=C(c2ncccc2C(=O)O)NC1=O` (centres undefined) [IMAZAPYR]: the outcome with Raphanus raphanistrum [14] was Active. The Ratio with Raphanus raphanistrum [1] is over 7.8; in the assay on Raphanus raphanistrum [4], over 16; with Raphanus raphanistrum [11] it was over 14.6. Besides, the IC50 at Acetolactate synthase [3] was over 100 µM; at Acetolactate synthase [5], 6.84 µM. Also, the LD50 in the assay with Raphanus raphanistrum [7] is under 63 g/ha; in the assay on Raphanus raphanistrum [10], 1000 g/ha. Besides, the GR50 is listed as under 63 g/ha with Raphanus raphanistrum [8] and 486 g/ha in the assay with Raphanus raphanistrum [9].
For `Cc1ccn2nc(S(=O)(=O)Nc3c(F)cccc3F)nc2n1`, the IC50 at Acetolactate synthase [3] is over 100 µM; at Acetolactate synthase [5], 1.66 µM. Moreover, the result with Raphanus raphanistrum [7] and with Raphanus raphanistrum [8] was Active. Moreover, the result in the assay with Raphanus raphanistrum [9] and in the assay with Raphanus raphanistrum [10] was inactive. In the assay with Raphanus raphanistrum [11], the Ratio is over 60.
Turning to `COc1nc(C)nc(NC(=O)NS(=O)(=O)c2ccccc2Cl)n1` [CHLORSULFURON], in the assay with Raphanus raphanistrum [15], the inhibition of growth at 0.625 g/ha was found to be 72%. Moreover, the inhibition of growth at 20 g/ha in the assay with Raphanus raphanistrum [16] stood at 15%. In addition, the values for the LD50 with Raphanus raphanistrum [7] and in the assay with Raphanus raphanistrum [10] were under 0.625 g/ha and over 640 g/ha, respectively. Also, the GR50 is given as under 0.625 g/ha with Raphanus raphanistrum [8] and over 640 g/ha in the assay on Raphanus raphanistrum [9]. In addition, in the assay with Raphanus raphanistrum [17], the outcome was inactive.

The record behind these values is ChEMBL document CHEMBL3045653, “A novel amino acid substitution Ala-122-Tyr in ALS confers high-level and broad resistance across ALS-inhibiting herbicides” (Pest Manag Sci, 2012).
